From PMC3402552 (Journal of Medicinal Chemistry, 2012)

Experiments:
[1] = biological target: 5-HT2B (Homo sapiens, UniProt P41595); assay: PDSP radioligand competition binding, 5-HT2B; conditions: Figure 9B
[2] = system: 5-HT2A F6.52L mutant; conditions: F6.52L mutation; cited from earlier work
[3] = system: 5-HT2A S3.36A/C mutant; conditions: S3.36A/C mutations; cited from earlier work
[4] = system: 5-HT2A W6.48A mutant; conditions: cited from earlier work
[5] = system: 5-HT2A F6.51L mutant; conditions: cited from earlier work
[6] = biological target: 5-HT2A (Homo sapiens, UniProt P28223); assay: PDSP radioligand competition binding, 5-HT2A; conditions: 5-HTR profiling
5-HT2A, sequence (P28223 whole entry, species assumed): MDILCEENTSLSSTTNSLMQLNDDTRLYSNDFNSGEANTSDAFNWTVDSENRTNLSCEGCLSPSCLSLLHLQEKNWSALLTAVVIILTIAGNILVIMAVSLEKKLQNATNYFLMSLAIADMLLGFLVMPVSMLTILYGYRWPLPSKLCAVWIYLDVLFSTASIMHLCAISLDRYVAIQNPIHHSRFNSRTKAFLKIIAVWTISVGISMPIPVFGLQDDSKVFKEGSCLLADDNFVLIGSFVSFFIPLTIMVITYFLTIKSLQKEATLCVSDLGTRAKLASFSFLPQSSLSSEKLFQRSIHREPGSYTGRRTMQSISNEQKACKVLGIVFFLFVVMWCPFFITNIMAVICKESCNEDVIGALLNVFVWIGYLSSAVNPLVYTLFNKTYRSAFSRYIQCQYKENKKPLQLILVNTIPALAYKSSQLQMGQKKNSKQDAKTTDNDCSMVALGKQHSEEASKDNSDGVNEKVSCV

[7] = biological target: T1, 5-HT1A (Homo sapiens, UniProt P08908); conditions: 5-HTR profiling
T1 sequence (P08908 1-422): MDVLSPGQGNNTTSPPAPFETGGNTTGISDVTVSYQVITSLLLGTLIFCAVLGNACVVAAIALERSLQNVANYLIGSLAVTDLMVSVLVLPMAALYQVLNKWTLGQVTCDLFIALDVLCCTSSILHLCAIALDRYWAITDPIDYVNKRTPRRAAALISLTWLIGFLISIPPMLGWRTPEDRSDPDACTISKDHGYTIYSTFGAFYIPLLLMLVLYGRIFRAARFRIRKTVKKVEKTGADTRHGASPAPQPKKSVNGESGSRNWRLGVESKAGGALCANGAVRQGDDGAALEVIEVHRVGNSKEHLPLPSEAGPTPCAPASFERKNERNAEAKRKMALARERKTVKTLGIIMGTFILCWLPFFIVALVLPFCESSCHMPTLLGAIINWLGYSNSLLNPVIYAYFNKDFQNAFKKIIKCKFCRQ

[8] = biological target: 5-HT6 (Homo sapiens, UniProt P50406); conditions: 5-HTR profiling
5-HT6, sequence (P50406 whole entry, species assumed): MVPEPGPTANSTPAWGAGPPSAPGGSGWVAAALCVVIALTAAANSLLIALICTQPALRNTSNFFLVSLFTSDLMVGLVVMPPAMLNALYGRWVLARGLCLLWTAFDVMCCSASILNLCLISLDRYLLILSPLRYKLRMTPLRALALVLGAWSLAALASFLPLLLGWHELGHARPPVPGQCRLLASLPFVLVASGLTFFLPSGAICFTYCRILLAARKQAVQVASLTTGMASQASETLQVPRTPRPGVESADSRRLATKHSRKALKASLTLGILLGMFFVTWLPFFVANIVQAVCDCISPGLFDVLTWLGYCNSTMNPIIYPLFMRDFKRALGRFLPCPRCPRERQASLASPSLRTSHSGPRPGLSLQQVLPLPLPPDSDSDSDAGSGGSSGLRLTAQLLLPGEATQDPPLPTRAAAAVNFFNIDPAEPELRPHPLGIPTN

[9] = biological target: T2, 5-HT3 (Homo sapiens, UniProt P46098); assay: PDSP radioligand competition binding, 5-HT3; conditions: 5-HTR profiling
T2 sequence (P46098 24-478): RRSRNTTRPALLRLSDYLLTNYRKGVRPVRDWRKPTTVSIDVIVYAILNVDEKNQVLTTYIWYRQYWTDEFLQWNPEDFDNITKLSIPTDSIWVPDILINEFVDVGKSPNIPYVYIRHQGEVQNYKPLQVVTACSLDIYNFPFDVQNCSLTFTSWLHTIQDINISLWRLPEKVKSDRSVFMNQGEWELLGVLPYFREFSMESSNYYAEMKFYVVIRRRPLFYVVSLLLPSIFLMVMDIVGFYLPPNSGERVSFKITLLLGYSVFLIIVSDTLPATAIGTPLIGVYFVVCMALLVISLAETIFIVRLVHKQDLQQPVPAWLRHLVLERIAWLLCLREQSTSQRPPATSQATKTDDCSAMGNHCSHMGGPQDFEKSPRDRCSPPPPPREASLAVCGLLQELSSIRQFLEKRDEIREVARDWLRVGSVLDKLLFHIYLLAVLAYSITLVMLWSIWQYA

[10] = biological target: 5-HT7 (Homo sapiens, UniProt P34969); conditions: 5-HTR profiling
5-HT7, sequence (P34969 whole entry, species assumed): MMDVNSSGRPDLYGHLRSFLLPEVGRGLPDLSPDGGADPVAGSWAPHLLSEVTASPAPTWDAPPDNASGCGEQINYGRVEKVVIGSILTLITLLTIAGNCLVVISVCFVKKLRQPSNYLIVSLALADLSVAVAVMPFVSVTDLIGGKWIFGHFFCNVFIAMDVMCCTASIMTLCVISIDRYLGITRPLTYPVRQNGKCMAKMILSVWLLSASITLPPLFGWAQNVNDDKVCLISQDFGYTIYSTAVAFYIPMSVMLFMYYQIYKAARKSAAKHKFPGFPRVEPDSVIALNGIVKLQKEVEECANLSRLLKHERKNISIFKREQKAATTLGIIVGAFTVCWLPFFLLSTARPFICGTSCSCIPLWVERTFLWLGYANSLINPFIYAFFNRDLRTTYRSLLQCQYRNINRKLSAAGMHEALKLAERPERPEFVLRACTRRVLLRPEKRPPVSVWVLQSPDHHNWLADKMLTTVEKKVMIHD

[11] = biological target: 5-HT1B (Homo sapiens, UniProt P28222); assay: PDSP radioligand competition binding, 5-HT1B; conditions: 5-HTR profiling
5-HT1B, sequence (P28222 whole entry, species assumed): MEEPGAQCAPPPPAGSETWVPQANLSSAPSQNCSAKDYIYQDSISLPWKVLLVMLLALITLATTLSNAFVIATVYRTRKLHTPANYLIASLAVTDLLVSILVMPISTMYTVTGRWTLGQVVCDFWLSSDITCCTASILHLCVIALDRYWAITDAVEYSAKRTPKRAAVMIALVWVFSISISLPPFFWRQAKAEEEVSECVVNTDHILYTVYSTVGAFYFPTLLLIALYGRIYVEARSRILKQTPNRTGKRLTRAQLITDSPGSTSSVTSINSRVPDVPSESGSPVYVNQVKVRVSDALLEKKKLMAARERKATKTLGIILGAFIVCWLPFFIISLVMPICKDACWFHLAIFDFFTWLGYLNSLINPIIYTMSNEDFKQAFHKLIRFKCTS

[12] = biological target: 5-HT1E (Homo sapiens, UniProt P28566); assay: PDSP radioligand competition binding, 5-HT1E; conditions: 5-HTR profiling
5-HT1E, sequence (P28566 whole entry, species assumed): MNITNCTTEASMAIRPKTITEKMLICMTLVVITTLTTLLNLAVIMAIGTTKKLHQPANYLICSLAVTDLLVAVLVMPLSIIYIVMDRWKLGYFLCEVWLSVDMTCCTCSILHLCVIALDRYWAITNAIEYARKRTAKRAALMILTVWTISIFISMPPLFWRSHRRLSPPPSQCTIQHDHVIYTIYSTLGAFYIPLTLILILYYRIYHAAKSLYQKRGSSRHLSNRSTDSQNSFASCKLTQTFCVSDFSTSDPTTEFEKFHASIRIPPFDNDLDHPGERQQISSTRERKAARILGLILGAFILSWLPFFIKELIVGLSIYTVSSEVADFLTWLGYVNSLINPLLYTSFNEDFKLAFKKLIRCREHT

[13] = biological target: 5-HT5a (Homo sapiens, UniProt P47898); conditions: 5-HTR profiling
5-HT5a, sequence (P47898 whole entry, species assumed): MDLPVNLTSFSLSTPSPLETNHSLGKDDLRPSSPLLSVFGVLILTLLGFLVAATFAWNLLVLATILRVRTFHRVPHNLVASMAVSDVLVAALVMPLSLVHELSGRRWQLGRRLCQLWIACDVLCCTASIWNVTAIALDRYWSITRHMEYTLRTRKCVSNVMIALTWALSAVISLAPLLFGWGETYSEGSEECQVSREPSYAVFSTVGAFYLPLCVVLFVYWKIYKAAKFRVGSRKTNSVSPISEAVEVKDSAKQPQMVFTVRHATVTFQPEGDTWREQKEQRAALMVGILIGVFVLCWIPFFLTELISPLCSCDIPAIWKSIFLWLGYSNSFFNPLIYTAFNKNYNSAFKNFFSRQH

5-HT2B, sequence (P41595 whole entry, species assumed): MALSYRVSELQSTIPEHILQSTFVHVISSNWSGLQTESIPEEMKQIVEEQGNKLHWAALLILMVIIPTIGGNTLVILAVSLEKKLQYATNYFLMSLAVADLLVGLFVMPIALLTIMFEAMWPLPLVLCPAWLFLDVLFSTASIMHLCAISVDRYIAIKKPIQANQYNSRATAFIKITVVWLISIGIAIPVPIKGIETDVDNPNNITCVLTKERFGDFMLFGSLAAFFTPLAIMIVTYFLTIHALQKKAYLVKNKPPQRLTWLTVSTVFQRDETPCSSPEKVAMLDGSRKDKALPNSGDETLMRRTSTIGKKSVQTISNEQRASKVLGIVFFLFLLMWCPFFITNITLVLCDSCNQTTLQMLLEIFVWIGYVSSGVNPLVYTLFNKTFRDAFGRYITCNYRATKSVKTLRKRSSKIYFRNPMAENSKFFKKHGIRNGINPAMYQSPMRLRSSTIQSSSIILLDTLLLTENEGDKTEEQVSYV

CNC(=O)c1cccc(Oc2ccc(NC(=O)Nc3ccc(Cl)c(C(F)(F)F)c3)cc2)c1 [HN01]
change of binding relative to sorafenib (in words) [1]: slight improvement of binding

O=C(c1ccc(F)cc1)C1CCN(CCn2c(=O)[nH]c3ccccc3c2=O)CC1 [ketanserin]
effect of mutation on binding affinity (in words) [2]: almost no effect | effect of mutation on binding affinity (in words) [3]: almost no effect | decrease of binding by mutation [4]: 7 fold | decrease of binding by mutation [5]: at least 800 fold

CNC(=O)c1cc(Oc2ccc(NC(=O)Nc3ccc(Cl)c(C(F)(F)F)c3)cc2)ccn1 [sorafenib]
binding (in words) [6]: weakly binds | binding (in words) [7]: weakly binds | binding (in words) [8]: weakly binds | binding (in words) [9]: doesn’t bind | binding (in words) [10]: weakly binds | binding (in words) [11]: doesn’t bind | binding (in words) [12]: doesn’t bind | binding (in words) [13]: weakly binds
